Measurements published in patent US20210290644A1, “COMPOUNDS AND METHODS FOR TREATING FUNGAL INFECTIONS” (Amplyx Pharmaceuticals, Inc., priority 2018, published 2021).
Values joined by “and” are separate entries in the source; they are usually repeats but may differ in a detail not shown here. Equal values may be shown once. “Also recorded” adds a separate entry of the source.

Tests used:
[1] = Study #1 Phase 1: plasma and urine pharmacokinetics of Compound 1 and Compound 1A after IV infusion of Compound 1 (SAD, MAD, loading regimen); conditions: both, human, plasma; for Vd: Vz
Text: (§1) This was a Phase 1, first-in-human, randomized, double-blind, placebo-controlled single ascending dose (SAD) and multiple ascending dose (MAD) escalation study of 120 healthy male and female subjects. The objectives of the study were to evaluate the safety, tolerability, and pharmacokinetics of single and multiple doses of Compound 1 administered by intravenous (IV) infusion.
(§2) In the single ascending dose (SAD) phase, Cohorts 1 to 6 and 11A to 11D received single doses. For Cohorts 11A to 11D, the infusion time varied from 0.5 to 3 hours to evaluate the relationship between C., and tolerability. In the multiple ascending dose (MAD) phase, Cohorts 7 to 10 received multiple doses over 14 days, and Cohort 12 examined the feasibility of a loading dose regimen.
(§3) Blood samples for the determination of Compound 1 and Compound 1A plasma concentrations were collected before and at appropriate times during all single- and multiple-dose administrations of Compound 1. For SAD Cohorts 1 to 6, urine samples for the determination of Compound 1A were collected through 48 hrs after dosing.
(§4) Eighty (80) subjects were enrolled into SAD Cohorts 1 to 6 and 11A to 11D. Within each cohort, six subjects were randomized to Compound 1 and two subjects to placebo. All 60 subjects randomized to Compound 1 completed dosing. Fifty-nine (59) subjects completed the study.
(§5) Forty (40) subjects were enrolled into MAD Cohorts 7 to 10 and Loading Dose Cohort 12. Within each cohort, six subjects were randomized to Compound 1 and two subjects to placebo.
(§6) The PK analysis population therefore consisted of 60 subjects in the SAD phase and 28 subjects in the MAD phase.

clinical = conditions: both, human, iv; for clearance / half-life: in vivo
Text: as §1, §2, §3, §4, §5, §6

[2] = Study #2 Phase 1: effect of food (fed vs fasted) on pharmacokinetics of Compound 1A after 400 mg oral Compound 1; conditions: for F: 400 mg oral, ratio of geometric mean AUC(inf) to IV treatment after correction for dose;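 as to all read-outs here: cohort 1b subjects took one oral dose in both fed and fasted states, across two separate periods (E, F) within the single ascending dose phase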
Text: Study #2 of Compound 1 was a Phase 1, double-blind, placebo-controlled, randomized study in healthy volunteers that consisted of a series of single and multiple dose treatments. In the single ascending dose (SAD) phase, subjects in Cohort 1a received a single IV dose in Period A and then rising single oral doses in Periods B to D. Subjects in Cohort 1b received a single oral dose under fed and fasted conditions in Periods E and F. Subjects in Cohorts 2 and 3 received once-daily oral doses for 14 days, as did subjects in Cohort 4 as part of an in vivo screen for drug-drug interaction (DDI) potential.
Blood samples for the determination of Compound 1 and Compound 1A plasma concentrations were collected before and at appropriate times during all single and multiple dose administrations of Compound 1. For SAD Cohorts 1a and 1b, urine samples for the determination of Compound 1A were collected through 48 hrs after dosing.

[3] = 600 mg, Cohort 10: Compound 1 600 mg/3 hr IV QD × 14 days, Day 14, geometric mean
[4] = 600 mg, Cohort 12 loading regimen: Compound 1 600 mg/1 hr IV QD, Day 7, geometric mean
[5] = 1000 mg, Cohort 11: Compound 1 1,000 mg/0.5 hr IV, single dose, geometric mean
[6] = 1000 mg, Cohort 11: Compound 1 1,000 mg/1 hr IV, single dose, geometric mean
[7] = 1000 mg, Cohort 11: Compound 1 1,000 mg/2 hr IV, single dose, geometric mean
[8] = 1000 mg, Cohort 11: Compound 1 1,000 mg/3 hr IV, single dose, geometric mean
[9] = Cohort 1B, 400 mg oral Compound 1, fed vs fasted

`Nc1ncccc1-c1cc(Cc2ccc(COc3ccccn3)cc2)no1` [Compound 1A] showed an AUC(0-t) ([1]; 600 mg, AUC(0-24), Cohort 12 loading regimen: Compound 1 600 mg/1 hr IV QD, Day 7, geometric mean) of 201 µg·h/mL, a Cmax ([1]; 600 mg, Cohort 10: Compound 1 600 mg/3 hr IV QD × 14 days, Day 1, geometric mean) of 7570 ng/mL and a Cmax ([1]; 600 mg, Cohort 10: Compound 1 600 mg/3 hr IV QD × 14 days, Day 7, geometric mean) of 14500 ng/mL. It also gave a Cmax [1, 3] of 15400 ng/mL, a Cmax ([1]; 600 mg, Cohort 12 loading regimen: Compound 1 600 mg/1 hr IV QD, Day 4, geometric mean) of 17900 ng/mL and a Cmax [1, 4] of 17700 ng/mL. It also gave a Tmax ([1]; 600 mg, Cohort 10: Compound 1 600 mg/3 hr IV QD × 14 days, Day 1, median) of 3 h, a Tmax ([1]; 600 mg, Cohort 10: Compound 1 600 mg/3 hr IV QD × 14 days, Day 7, median) of 3.03 h and a Tmax ([1]; 600 mg, Cohort 10: Compound 1 600 mg/3 hr IV QD × 14 days, Day 14, median) of 3 h. The Tmax ([1]; 600 mg, Cohort 12 loading regimen: Compound 1 600 mg/1 hr IV QD, Day 4, median) was 1 h, the Tmax ([1]; 600 mg, Cohort 12 loading regimen: Compound 1 600 mg/1 hr IV QD, Day 7, median) was 1 h and the Vd [1, 3] was 175 L and 2.75 L/kg. For the same molecule, the Vd [1, 4] was 162 L and 2.27 L/kg, the AUC(0-t) ([1]; 1000 mg, AUC(0-24), Cohort 11: Compound 1 1,000 mg/0.5 hr IV, single dose, geometric mean) was 131 µg·h/mL and the AUC(0-t) ([1]; 1000 mg, AUC(0-24), Cohort 11: Compound 1 1,000 mg/1 hr IV, single dose, geometric mean) was 134 µg·h/mL. It also gave an AUC(0-t) ([1]; 1000 mg, AUC(0-24), Cohort 11: Compound 1 1,000 mg/2 hr IV, single dose, geometric mean) of 130 µg·h/mL, an AUC(0-t) ([1]; 1000 mg, AUC(0-24), Cohort 11: Compound 1 1,000 mg/3 hr IV, single dose, geometric mean) of 117 µg·h/mL and an AUC(0-t) ([1]; 1000 mg, AUC(0-24), Cohort 12 loading regimen: Compound 1 1,000 mg/2 hr IV at 0 & 9 hr, Day 1, geometric mean) of 211 µg·h/mL. The AUC(0-t) ([1]; 1000 mg, AUC(0-t), Cohort 11: Compound 1 1,000 mg/1 hr IV, single dose, geometric mean) was 481 µg·h/mL, the AUC(0-t) ([1]; 1000 mg, AUC(0-t), Cohort 11: Compound 1 1,000 mg/2 hr IV, single dose, geometric mean) was 476 µg·h/mL and the AUC(0-inf) [1, 5] was 434 µg·h/mL. It also gave an AUC(0-inf) [1, 6] of 536 µg·h/mL, an AUC(0-inf) [1, 7] of 541 µg·h/mL and an AUC(0-inf) [1, 8] of 400 µg·h/mL. It also gave a Cmax [1, 5] of 24900 ng/mL, a Cmax [1, 6] of 20100 ng/mL and a Cmax [1, 7] of 15600 ng/mL. The Cmax [1, 8] was 11900 ng/mL, the Cmax ([1]; 1000 mg, Cohort 12 loading regimen: Compound 1 1,000 mg/2 hr IV at 0 & 9 hr, Day 1, geometric mean) was 15700 ng/mL and the Tmax ([1]; 1000 mg, Cohort 11: Compound 1 1,000 mg/0.5 hr IV, single dose, median) was 0.52 h. The Tmax ([1]; 1000 mg, Cohort 11: Compound 1 1,000 mg/1 hr IV, single dose, median) was 1.02 h, the Tmax ([1]; 1000 mg, Cohort 11: Compound 1 1,000 mg/2 hr IV, single dose, median) was 2.02 h and the Tmax ([1]; 1000 mg, Cohort 11: Compound 1 1,000 mg/3 hr IV, single dose, median) was 3.02 h. The Tmax ([1]; 1000 mg, Cohort 12 loading regimen: Compound 1 1,000 mg/2 hr IV at 0 & 9 hr, Day 1, median) was 11 h, the Vd [1, 5] was 141 L and 19.7 L/kg and the Vd [1, 6] was 139 L and 2.11 L/kg. The Vd [1, 7] was 153 L and 2.43 L/kg, the Vd [1, 8] was 153 L and 2.02 L/kg and the clearance (clinical) was 25.7 mL/min and 0.348 mL/min/kg. For the same molecule, the half-life (clinical) was 3.12 days, the clearance (clinical; CL) was 31.5 mL/min and 0.45 mL/min/kg and the half-life (clinical; geometric mean T1/2, range across treatments) was 1.63 to 3.12 days. For the same molecule, the half-life (clinical; geometric mean t1/2, range across cohorts) was 2 to 2.88 days, the half-life (clinical; t½) was 1.63 days and the AUC(0-t) (clinical; plasma, 150 mg) was 51900 ng·h/mL. For the same molecule, the Cmax (clinical; plasma, 150 mg) was 3420 ng/mL, the Vd (clinical; plasma, 150 mg) was 174 L and 2.17 L/kg and the AUC(0-inf) (clinical; plasma, 350 mg) was 173 µg·h/mL. The Cmax (clinical; plasma, 350 mg) was 4330 ng/mL, the Vd (clinical; plasma, 350 mg) was 167 L and 2.26 L/kg and the “effect of high fat/high calorie meal on bioavailability/exposure” value ([2]; 400 mg oral Compound 1) was “no significant effect; also recorded: no impact of food”. For the same molecule, the “least squares geometric mean ratios (LSGMR) fed/fasted for Cmax and both AUCs” value ([2]; 400 mg oral Compound 1, high fat/high calorie meal) was roughly 106%, the “Geometric Mean Ratio, AUC(0-t)” value [2, 9] was 106.00% and the “Geometric Mean Ratio, AUC(inf)” value [2, 9] was 106.15%. For the same molecule, the “Geometric Mean Ratio, Cmax” value [2, 9] was 106.29%, the F ([2]; Cohort 1B, Fasted) was 101.2% and the F ([2]; Cohort 1B, Fed) was 107.4%. The AUC(0-t) ([2]; human, plasma, po, 400 mg, AUC(0-24), Cohort 1B, 400 mg oral Compound 1, Fed, geometric mean) was 43.6 µg·h/mL, the AUC(0-t) ([2]; human, plasma, po, 400 mg, AUC(0-t), Cohort 1B, 400 mg oral Compound 1, Fed, geometric mean) was 180 µg·h/mL and the AUC(0-inf) ([2]; human, plasma, po, 400 mg, AUC(inf), Cohort 1B, 400 mg oral Compound 1, Fed, geometric mean) was 188 µg·h/mL. For the same molecule, the CL/F ([2]; human, plasma, po, 400 mg, CL/F, Cohort 1B, 400 mg oral Compound 1, Fed, geometric mean) was 0.395 mL/min/kg, the Cmax ([2]; human, plasma, po, 400 mg, Cmax, Cohort 1B, 400 mg oral Compound 1, Fed, geometric mean) was 4520 ng/mL and the Tmax ([2]; human, plasma, po, 400 mg, Tmax, Cohort 1B, 400 mg oral Compound 1, Fasted, median) was 2.5 h. The Tmax ([2]; human, plasma, po, 400 mg, Tmax, Cohort 1B, 400 mg oral Compound 1, Fed, median) was 3.75 h, the Vd/F ([2]; human, plasma, po, 400 mg, Vz/F, Cohort 1B, 400 mg oral Compound 1, Fed, geometric mean) was 159 L and 2.3 L/kg and the Tmax ([2]; human, plasma, po, 400 mg, median tmax, 400 mg oral Compound 1, fasted conditions) was 2.5 h. For the same molecule, the Tmax ([2]; human, plasma, po, 400 mg, median tmax, 400 mg oral Compound 1, fed conditions) was 3.75 h and the half-life ([2]; human, plasma, po, 400 mg, t½, Cohort 1B, 400 mg oral Compound 1, Fed, geometric mean) was 2.81 days.
